# “Also recorded” adds a separate entry of the source. Where two headings read alike, the source gives them in different places.
# How the values were obtained:
# phospho-c-Jun = experiment: Immunoblotting of thapsigargin-induced c-Jun phosphorylation in CSM14.1 cells; assay type: cell-based, rat; conditions: immunoblotting with phospho-specific antibody, 10 μM, 25 μM hits
# Excerpt: After confirming the pathway selectivity of compounds, additional downstream assays can be performed to map the specific signal transduction pathway inhibited by the compounds. In this regard, various antibody reagents are commercially available for assessing the status of the three major pathways known to be activated by ER stress: (1) PERK, (2) Ire1, and (3) ATF6 (Xu et al., J. Clinical Invest., 115:2656-2664, 2005). Immunoblotting experiments can be performed to assess the expression or phosphorylation (using phospho-specific antibodies) of marker proteins in these pathways. […] CSM 14.1 cells were cultured with DMSO or with 25 μM of hit compounds for two hours, followed by treatment of thapsigargin (15 μM). Cell lysates were prepared and analyzed by SDS-PAGE/immunoblotting using antibodies specific for phospho-c-Jun, phospho-eIF2α, phospho-p38 MAPK, and tubulin (a loading control). CSM14.1 cells were cultured with either DMSO or one of the active compounds at 1, 5, and 10 μM, followed two hours later by 15 μM TG. After two hrs, cell lysates were prepared, normalized for protein content, and either analyzed by SDS-PAGE/immunoblotting using anti-p38-MAPK pan-reactive antibody or phospho-specific antibody with ECL-based detection, followed by densitometry analysis of x-ray films, normalizing phosphor-p38 MAPK relative to total p38 MAPK, or analyzed using a meso-scale instrument from MSD and a procedure in which total p38 MAPK is captured on plates, and the relative amounts of phosphorylated protein were determined using phospho-specific antibody (MSD catalog #K15112D1). […] Suppression of p38 MAPK and c-Jun phosphorylation was dose-dependent, and could not be explained by a decline in total levels of these proteins. […] Proteolytic processing of ATF6 was also not inhibited by our hit compounds. […] Screens of other libraries (such as the NIH compound collection) may yield cytoprotective compounds with different mechanisms.
# 1) CSM14.1 cells were plated at a density of 2×10^5 cells/well at 6 well dish (Greiner Bio one) in DMEM containing 2% FBS and antibiotics.
# 2) After overnight incubation, cells were treated by DMSO (0.5%) or compounds (25 μM) for two hours, followed by TG (15 uM) treatment.
# 3) After two hours, cells were lyzed in 250 uL of lysis buffer and subjected to protein concentration decision, and to SDS PAGE/Western blotting using antibodies specific for phospho p38 MAPK (Cell signaling 9211), p38 MAPK (Santa Cruz-C20), phospho c-Jun (Cell signaling 9164), c-Jun (Santa Cruz-SC 1694), phospho eIF2α (Cell signaling 3597) and α-tubulin.
# CSM 14.1 cells were cultured with DMSO or with 25 μM of hit compounds for two hours followed by treatment with thapsigargin (15 μM). Cell lysates were prepared and analyzed by SDS-PAGE/immunoblotting using antibodies specific for: c-Jun, phosphor-c-Jun (ser 73), eIF2a, phosphor-eIF2a (ser 51), p38 MAPK, phosphor-p38 MAPK (Thr180/Tyr182), ATF-6, CHOP and tubulin (loading control). ER stress-induced activation of C-Jun and p38 MAPK is suppressed by the 11 hit compounds.
# CSM cells were treated with two compounds at increasing doses. Pre-incubation time, thapsigargin treatment, cell extract preparation and immunoblotting protocols were as described previously.
# CSM14.1 cells = experiment: Primary HTS assay: ATP content (ATPlite) of undifferentiated CSM14.1 cells challenged with thapsigargin; assay type: cell-based, rat; conditions: for Activity against thapsigargin-induced cell death / cell protection: cell death assay used for primary screening; for IC50: thapsigargin-induced death of undifferentiated CSM14.1, ATP content
# Excerpt: For convenience, and because transient reductions in temperature that might be associated with large screening experiments could restore Large T activity, we elected to develop our HTS using undifferentiated CSM14.1 cells, with the plan to then confirm hits using differentiated cells. For monitoring cell death, we used a commercially available bioluminescence reagent that determines intracellular ATP content, without requirement for complicated cell processing steps (ATPlite, Perkin Elmer). Thus, ATP was used as a surrogate indicator of cell survival for the primary assay.
# Undifferentiated or differentiated CSM14.1 cells were plated at a density of 3,000 cells/well in 40 μL DMEM medium (containing 10% serum, 1 mM L-glutamine, and antibiotics) in 96 well flat-bottom microtiter plates composed of polystrene (Greiner Bio One, polystyrene, white wall, flat bottom, lumitrac, high binding). After overnight incubation at 32° C., DMSO (0.5% v/v) or 100 uM Salubrinal (Sal) in DMSO was delivered. After 2 hrs, 5 uL of a stock solution of 150 uM TG in DMEM medium containing 0.75% (v:v) DMSO to achieve a final concentration of approximately 15 uM. After culturing for 24 hrs, cellular ATP content was measured by addition of 20 uL per well of ATPlite solution (Perkin-Elmer), and then the plates were incubated for three minutes at room temperature, before reading with a Microplate Luminometer (BD Pharmingen Moonlight model 3096).
# To determine the reproducibility of the ATP content assay, we prepared a 96-well plate in which half the wells received TG plus DMSO (assay minimum) and half received TG plus Salubrinal (assay maximum), then performed the ATP content studies using undifferentiated CSM14.1 cells (FIG. 6). CSM14.1 cells were cultured overnight at 3,000 cells per well in 96-well flat-bottom plates, then either DMSO (0.5% final concentration) or Salubrinal (100 μM) in DMSO (0.5% final concentration) was added to half the well (48 each). After two hrs, TG was added to all wells (15 μM final). Cells were cultured for 24 hrs, then the ATP content was measured using the ATPlite luminogenic assay. We then adapted this assay to the high-throughput environment, using a Biomex™ FX liquid handler for automated dispensing of assay components into microwells of 96-well plates. First, undifferentiated CSM14.1 cells were grown at 32° C. in DMEM medium supplemented with 10% fetal bovine serum (FBS), 1% penicillin/streptomycin, and 1% L-glutamine in 150 mm×25 mm polystyrene culture dishes to produce approximately 3×10^6 cells. Second, CSM14.1 cells were recovered from cultures by trypsinization when at 80-90% confluence, and suspended at 7.5×10^4 cells/mL in DMEM medium containing 2% FBS, 1 mM L-glutamine, and antibiotics 100 IU penicillin 100 μg/ml streptomycin. Third, the cell suspension was then delivered at 40 μL per well of 96-well plastic microtiter plates (Greiner Bio One, polystyrene, white wall, flat bottom, lumitrac, high binding, cat #655074), and the plates were cultured overnight at 32° C. in a humidified atmosphere in 95% air: 5% CO2. Fourth, using the automated liquid handler, 5 μL of test compounds in 10% DMSO were added to wells in columns 2-11 of the 96-well plates (leaving columns 1 and 12 intact) to achieve an approximate final concentration of 15 μg/mL test compound and a final concentration of 1% DMSO. Fifth, 5 μL of 1 mM Salubrinal in a solution of 10% DMSO:90% DMEM was added to wells of column 1/rows A-D of each plate, while 5 μL of 10% DMSO:90% DMEM solution was added to wells corresponding to column 1/rows E-H and to all wells in column 12. Sixth, the plates were returned to culture.
# [1] = system: ASK1 (ser 967, ser 83, thr 845); experiment: Phosphorylation of ASK1 sites in ASK1-transfected 293T cells (immunoblotting); assay type: cell-based; conditions: ASK1-transfected 293T; for Phosphorylation of ASK1 at ser 967: 100 μM compound, two hours; for Phosphorylation of ASK1 at ser 83 and thr 845: up to 100 μM
# Procedure: Phosphorylation of ASK1 at various sites was inspected. 293T cells were transfected with pcDNA-ASK1-HA. One day later, cells were incubated with DMSO (0.4%) or 100 μM compound 6239507 (#1) for two hours. Cell extracts were prepared using lysis buffer and were subjected to immunoblotting using anti-phospho ASK1 antibodies or anti HA antibody as indicated (A). The relative density of each phosphorylated ASK band was calculated by imageJ software (B). In (C), compounds from (A) were compared in activity against thapsigargin-induced cell death. […] (D) 293T cells were transfected with pcDNA-ASK1-HA and pEBG-GST-14-3-3. One day later cells were incubated with DMSO (0.4%) or 100 μM of the indicated compound for two hours. Then cells were treated with thapsigargin (20 μM) for the indicated time. Cell extracts were prepared using lysis buffer, and 14-3-3 proteins were immunoprecipitated with […] sepharose beads. ASK1 protein binding with 14-3-3 was visualized by immunoblotting using anti-HA antibody. Anti-phospho ASK1 (ser967) antibody was used to detect phosphorylation of ASK1 at each time point.
# Thus, while not directly inhibiting ASK1 kinase activity, these events are predicted to reduce ASK1 in vivo kinase activity. It is possible that compound 5962123 inhibits a protein phosphatase that regulates phosphorylation of Ser967.
# Suppression of thapsigargin-induced phosphorylation of p38MAPK was also measured by a quantitative ELISA-methods, with IC50 for p38MAPK phosphorylation estimated at <5 μM. In contrast, thapsigargin-induced expression of CHOP, expression of ATF4, proteolytic processing of ATF6, phosphorylation of eIF2a (Ser 51), auto-phosphorylation of Ire1a or auto-phosphorylation of ASK1 were not inhibited directly by CID-2878746 at concentrations up to 50 μM tested by in vitro kinase assay using p32-γ-ATP substrate. […] Thapsigargin-induced reductions in phosphorylation of ASK1 at the serine 967 site in ASK1 transfected 293T cells are inhibited by compound 5962123 at concentrations of 50-100 μM, as determined by immunoblotting using anti-phospho-specific (ser 967) antibody, but thapsigargin-induced changes in phosphorylation of ASK1 at ser 83 and thr 845 are not modulated by compound 5962123 at concentrations as high as 100 μM in ASK1-transfected HEK293T cells.
# Experiments were also performed to determine whether compound 6239507 enhances phosphorylation of ASK1 at Ser 967 before and after ER stress induction (i.e., thapsigargin treatment). 293T cells were transfected with pcDNA-ASK1-HA. One day later, cells were incubated with DMSO (0.4%) or 100 μM compound 6239507 (#1) for two hours. Then cells were treated with thapsigargin (20 μM) for the indicated times. Cell extracts were prepared by lysis buffer and were subjected to immunoblotting with anti-phospho ASK1 Ser967 antibody or anti HA antibody. The relative density of phosphor ser967 bands were calculated by imageJ software (mean ±SD).
# The ser 967 site of ASK1 is known to down-regulate ASK1 activity by phosphorylation (Goldman et al., J. Biol. Chem. 279:10442-10449, 2004) via 14-3-3 binding. […] 293T cells were transfected with pcDNA-ASK1-HA. One day later, cells were incubated with DMSO (0.4%) or 100 μM compound 6239507 (#1) for two hours. Cell extracts were prepared using lysis buffer and were subjected to immunoblotting using anti-phospho ASK1 antibodies or anti HA antibody as indicated. The relative density of each phosphorylated ASK band was calculated by imageJ software. The compounds were compared in activity against thapsigargin-induced cell death. 293T cells were transfected with pcDNA-ASK1-HA and pEBG-GST-14-3-3. One day later cells were incubated with DMSO (0.4%) or 100 μM of the indicated compound for two hours. Then cells were treated with thapsigargin (20 μM) for the indicated time. Cell extracts were prepared using lysis buffer, and 14-3-3 proteins were immunoprecipitated with […] sepharose beads. […]
# [2] = one value given, read-out: IC50
# [3] = first assay, read-out: IC50 (μM), first value
# [4] = second assay (value in bold), read-out: IC50 (μM), value from a second assay
SMILES,Thapsigargin-induced phosphorylation of c-Jun (phospho-c-Jun),Activity against thapsigargin-induced cell death / cell protection (CSM14.1 cells),IC50 (CSM14.1 cells; [2]) [µM],Phosphorylation of ASK1 at ser 967 [1],Phosphorylation of ASK1 at ser 83 and thr 845 [1],IC50 (CSM14.1 cells; [3]) [µM],IC50 (CSM14.1 cells; [4]) [µM]
COc1ccc(C2CC(=O)C3=C(C2)Nc2ccccc2NC3c2cccc(O)c2)cc1 (stereo not drawn) [Compound 6048163],fail to suppress,inactive in cell protection; also recorded: not potent as an inhibitor of cell death,> 200,–,–,–,–
COc1ccc(C2CC(=O)C3=C(C2)Nc2ccccc2NC3c2ccncc2)cc1OC (stereo not drawn) [Compound 6075841],fail to suppress,inactive,> 200,–,–,–,–
COc1ccc(C2CC(=O)C3=C(C2)Nc2ccccc2NC3c2cc(C)ccc2C)cc1 (stereo not drawn) [Compound 6238767],–,–,12.5 ± 0.177,enhanced phosphorylation of ser 967 only,not ser 83 or thr 845,13.3 ± 1.17,12.5 ± 0.177
CCCOc1ccc(C2Nc3ccccc3NC3=C2C(=O)CC(c2ccc(OC)c(OC)c2)C3)cc1 (stereo not drawn) [Compound 6237877],dose-dependent decrease,–,12.5 ± 0.17,–,–,16.3 ± 0.439,12.5 ± 0.17
CCOc1cc(C2Nc3ccccc3NC3=C2C(=O)CC(c2ccc(OC)cc2)C3)cc(Cl)c1O (stereo not drawn) [Compound 6049448],–,–,23.7 ± 0.642,enhanced phosphorylation of ser 967 only,not ser 83 or thr 845,24.8 ± 2.03,23.7 ± 0.642
CCN(CC)c1ccc(C2Nc3ccccc3NC3=C2C(=O)CC(c2ccc(OC)cc2)C3)cc1 (stereo not drawn) [Compound 5969590],–,–,11.4 ± 1.49,–,–,–,–

# Source: patent US20080293699A1, “Inhibitors of thapsigargin-induced cell death” (priority 2007, published 2008)
